The values below come from patent US10450317B2, “Notch pathway signaling inhibitor compounds” (Eli Lilly and Company, priority 2015, dated 2019).

Molecules are shown by their SMILES.

The assay deals with Atoh1. In words: Hair cell marker induction in whole otic capsule culture (RT-PCR). Format: cell-based, mice. The following applies: otic capsule explants, 48 hours in culture, vs vehicle-only control, n of 12-17. An excerpt:
The otic capsule (otic capsule explant), comprised of the cochlear bony labrinth and vestibular systems, is dissected from 1 to 4 day-old postnatal mice (transgenic strain: Atoh 1-driven nGFP; Lumpkin E A, et al., Gene Expr. Patterns, 2003, 3(4): 389-95) of both sexes generally according to the method described in Parker et al., Journal of Visualized Experiments, 2010, (36), e1685. The entire otic capsule is isolated from the parietal bone and maintained ex-vivo in a roller tube culture system for up to 3 days in medium containing DMEM, high glucose, 5% FBS, 5% horse serum, 1 μg/ml ampicillin.
The otic capsule explant is used to evaluate test compound, in various delivery vehicles, penetrance into the inner ear. Tests are carried out with compositions of Compound 1, Isomer 2, (7.2 mM) in various delivery vehicles. […]
The composition is allowed to remain for 1-2 hours then washed away with culture medium. […] The cochlea is broken open and the entire organ of Corti is then dissected out and prepared for quantitative RT-PCR to measure Atoh1 hair cell marker expression levels (as described in organ of Corti explant assay, above). […] Up-regulation of Atoh1 by Compound 1, Isomer 2, in all tested compositions (2-3 fold, n of 12-17) is measured in comparison to vehicle-only control-treated otic capsule explants after 48 hours in culture.

With `COc1ccc2c(c1)N1CCC(C)(C)C1=CC(=O)C2NC(=O)[C@H](C)NC(=O)CCC(F)(F)F` (single isomer, unassigned) [Compound 1, Isomer 2], the “Up-regulation of Atoh1 in all tested compositions” value is given as 2-3 fold.
